In patent publication US20210177828A1, “TAM FAMILY KINASE /AND CSF1R KINASE INHIBITOR AND USE THEREOF” (Nanjing Transthera Biosciences Co., Ltd., priority 2018, published 2021):
One block for each molecule: values may come before it.

Key:
Axl (h) = biological target: T1, Axl (h) (Homo sapiens, UniProt P30530); experiment: Enzymatic activity assay, Axl (h), [γ-33P]-ATP filter assay; assay type: biochemical; conditions: 10 μM ATP, 40 min room temperature; read-out: Inhibitory activity IC50 Axl(h)
T1 sequence (P30530 26-894): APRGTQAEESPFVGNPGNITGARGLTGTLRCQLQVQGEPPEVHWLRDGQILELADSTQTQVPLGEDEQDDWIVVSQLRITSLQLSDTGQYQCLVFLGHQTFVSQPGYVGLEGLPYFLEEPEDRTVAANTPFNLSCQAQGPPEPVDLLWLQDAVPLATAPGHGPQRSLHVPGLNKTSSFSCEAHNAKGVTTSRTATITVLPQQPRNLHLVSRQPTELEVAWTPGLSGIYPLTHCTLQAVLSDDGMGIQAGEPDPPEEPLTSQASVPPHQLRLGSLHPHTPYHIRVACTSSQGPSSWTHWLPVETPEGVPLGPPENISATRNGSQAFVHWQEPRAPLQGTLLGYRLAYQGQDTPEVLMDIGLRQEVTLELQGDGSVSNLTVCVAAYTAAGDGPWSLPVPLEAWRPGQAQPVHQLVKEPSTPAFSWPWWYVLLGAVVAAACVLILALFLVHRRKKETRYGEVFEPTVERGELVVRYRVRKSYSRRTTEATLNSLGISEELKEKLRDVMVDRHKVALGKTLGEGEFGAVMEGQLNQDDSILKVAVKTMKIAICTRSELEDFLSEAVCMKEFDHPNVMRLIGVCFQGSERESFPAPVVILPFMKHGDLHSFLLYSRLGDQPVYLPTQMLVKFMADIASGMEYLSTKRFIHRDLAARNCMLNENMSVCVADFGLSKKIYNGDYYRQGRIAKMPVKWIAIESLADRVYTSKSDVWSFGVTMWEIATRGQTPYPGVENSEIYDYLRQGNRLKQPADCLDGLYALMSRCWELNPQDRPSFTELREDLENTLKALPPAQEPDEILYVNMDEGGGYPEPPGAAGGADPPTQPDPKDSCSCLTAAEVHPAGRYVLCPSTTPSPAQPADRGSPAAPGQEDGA
Procedure: (§1) Compounds were each dissolved in 100% DMSO to prepare stock solutions with a maximum concentration of 500 μM.
(§2) Compound working solutions (50×) were prepared by diluting a compound stock solution to a final concentration of 500, 150, 50, 15, 5, 1.5, 0.5, 0.15 and 0.05 μM.
An enzyme solution with a final concentration of 1.7 nM was prepared by dissolving Axl (h) enzyme in a mixture of 8 mM MOPS (pH 7.0), 0.2 mM EDTA and 250 μM KKSRGDYMTMQIG. A Mg/ATP mixture of 10 mM magnesium acetate and 10 μM [γ-^33P]-ATP was used to activate the enzymatic reaction.
(§3) A compound working solution was added to a 384-well plate, with final concentrations of 10,000, 3,000, 1,000, 300, 100, 30, 10, 3 and 1 nM, and then different enzymatic reaction solutions prepared according to the above conditions were added. The reaction solutions were incubated at room temperature for 40 min, and then 0.5% phosphoric acid solutions were added to terminate the reaction. 10 μL of the reaction solution was added dropwise to P30 filter paper, washed 4 times with a 0.425% phosphoric acid solution and once with methanol, and then placed in a scintillation counter for detection. Gray analysis was performed on the results with Image J software, and IC50 values were calculated with GraphPad 5.0 software.

Mer (h) = biological target: T2, Mer (h) (Homo sapiens, UniProt Q12866); experiment: Enzymatic activity assay, Mer (h), [γ-33P]-ATP filter assay; assay type: biochemical; conditions: 10 μM ATP, 40 min room temperature; read-out: Inhibitory activity IC50 Mer(h)
T2 sequence (Q12866 21-999): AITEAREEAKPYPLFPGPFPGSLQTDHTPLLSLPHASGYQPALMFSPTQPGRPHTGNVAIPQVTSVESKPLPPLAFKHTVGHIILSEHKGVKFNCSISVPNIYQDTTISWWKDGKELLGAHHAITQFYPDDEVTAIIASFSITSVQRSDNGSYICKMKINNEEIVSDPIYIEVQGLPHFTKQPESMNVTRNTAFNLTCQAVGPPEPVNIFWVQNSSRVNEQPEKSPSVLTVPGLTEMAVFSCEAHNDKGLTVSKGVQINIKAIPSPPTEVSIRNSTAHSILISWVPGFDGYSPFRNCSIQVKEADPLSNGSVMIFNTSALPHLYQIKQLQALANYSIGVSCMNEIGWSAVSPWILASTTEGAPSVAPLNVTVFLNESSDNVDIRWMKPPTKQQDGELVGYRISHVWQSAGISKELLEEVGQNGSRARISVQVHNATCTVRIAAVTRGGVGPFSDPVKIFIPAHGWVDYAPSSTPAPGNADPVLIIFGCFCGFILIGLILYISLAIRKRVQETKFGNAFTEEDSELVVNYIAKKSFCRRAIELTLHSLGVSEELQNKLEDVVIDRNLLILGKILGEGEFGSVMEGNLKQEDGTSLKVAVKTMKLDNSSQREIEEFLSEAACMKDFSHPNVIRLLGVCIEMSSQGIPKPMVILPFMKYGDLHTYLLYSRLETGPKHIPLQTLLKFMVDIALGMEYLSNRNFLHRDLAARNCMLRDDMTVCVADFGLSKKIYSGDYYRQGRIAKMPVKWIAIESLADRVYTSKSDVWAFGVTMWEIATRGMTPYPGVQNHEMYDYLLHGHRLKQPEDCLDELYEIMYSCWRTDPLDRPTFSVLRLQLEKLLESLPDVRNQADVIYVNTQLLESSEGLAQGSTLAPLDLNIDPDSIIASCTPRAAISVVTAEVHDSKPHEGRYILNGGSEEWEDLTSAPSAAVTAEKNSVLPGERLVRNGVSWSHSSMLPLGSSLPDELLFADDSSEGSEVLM
Procedure: as §1, §2
An enzyme solution with a final concentration of 3.1 nM was prepared by dissolving Mer (h) enzyme in a mixture of 8 mM MOPS (pH 7.0), 0.2 mM EDTA, 30 mM NaCl and 250 μM GGMEDIYFEFMGGKKK. A Mg/ATP mixture of 10 mM magnesium acetate and 10 μM [γ-^33P]-ATP was used to activate the enzymatic reaction.
as §3

SMILES: Cc1ccc(-c2cn(C3CCOCC3)nc(C(=O)Nc3ccc(Oc4ccnc5cc6c(cc45)OCCO6)cn3)c2=O)cc1 [Compound 30, N-(5-((2,3-dihydro-[1,4]dioxino[2,3-g]quinolin-9-yl)oxy)pyridin-2-yl)-4-oxo-1-(tetrahydro-2H-pyran-4-yl)-5-(p-tolyl)-1,4-dihydropyridazin-3-carboxamide]
- IC50 (Axl (h)): 39 nM
- IC50 (Mer (h)): 20 nM

SMILES: COc1cc2nccc(Oc3cnc(NC(=O)c4cn(C5CCOCC5)cc(-c5ccc(F)cc5)c4=O)nc3)c2cc1OC [Compound 31, N-(5-((6,7-dimethoxyquinolin-4-yl)oxy)pyrimidin-2-yl)-5-(4-fluorophenyl)-4-oxo-1-(tetrahydro-2H-pyran-4-yl)-1,4-dihydropyridin-3-carboxamide]
- IC50 (Axl (h)): 15 nM
- IC50 (Mer (h)): 8 nM

SMILES: COc1cc2nccc(Oc3cnc(NC(=O)c4nn(C5CCOCC5)cc(-c5ccc(F)cc5)c4=O)nc3)c2cc1OC [Compound 33, N-(5-((6,7-dimethoxyquinolin-4-yl)oxy)pyrimidin-2-yl)-5-(4-fluorophenyl)-4-oxo-1-(tetrahydro-2H-pyran-4-yl)-1,4-dihydropyridazin-3-carboxamide]
- IC50 (Axl (h)): 27 nM
- IC50 (Mer (h)): 6 nM

SMILES: COc1cc2nccc(Oc3ccc(NC(=O)c4nn(C5CCOCC5)cc(-c5ccc(F)cc5)c4=O)nc3)c2cc1OC [Compound 34, N-(5-((6,7-dimethoxyquinolin-4-yl)oxy)pyridin-2-yl)-5-(4-fluorophenyl)-4-oxo-1-(tetrahydro-2H-pyran-4-yl)-1,4-dihydropyridazin-3-carboxamide]
- IC50 (Axl (h)): 29 nM
- IC50 (Mer (h)): 2 nM

The next lines start with the values.

- IC50 (Axl (h)): 13 nM
- IC50 (Mer (h)): 7 nM
SMILES: COc1cc2nccc(Oc3ccc(NC(=O)c4cn(C5CCOCC5)cc(-c5ccc(F)cc5)c4=O)nc3)c2cc1OC [Compound 27, N-(5-((6,7-dimethoxyquinolin-4-yl)oxy)pyridin-2-yl)-5-(4-fluorophenyl)-4-oxo-1-(tetrahydro-2H-pyran-4-yl)-1,4-dihydropyridin-3-carboxamide]

- IC50 (Axl (h)): 23 nM
- IC50 (Mer (h)): 1 nM
SMILES: COc1cc2nccc(Oc3ccc(NC(=O)c4nn(C5CCOCC5)cc(-c5ccc(C)cc5)c4=O)cc3F)c2cc1OC [Compound 28]

- IC50 (Axl (h)): 28 nM
- IC50 (Mer (h)): 48 nM
SMILES: Cc1ccc(-c2cn(C3CCOCC3)nc(C(=O)Nc3ccc(Oc4ccnc5cc6c(cc45)OCO6)cn3)c2=O)cc1 [Compound 29, N-(5-([1,3]dioxolo[4,5-g]quinolin-8-yloxy)pyridin-2-yl)-4-oxo-1-(tetrahydro-2H-pyran-4-yl)-5-(p-tolyl)-1,4-dihydropyridazin-3-carboxamide]

- IC50 (Axl (h)): 31 nM
- IC50 (Mer (h)): 12 nM
SMILES: COc1cc2nccc(Oc3ccc(NC(=O)c4cc(CC5CCOCC5)cn(-c5ccc(F)cc5)c4=O)nc3)c2cc1OC [Compound 32, N-(5-((6,7-dimethoxyquinolin-4-yl)oxy)pyridin-2-yl)-1-(4-fluorophenyl)-2-oxo-5-((tetrahydro-2H-pyran-4-yl)methy 1)-1,2-dihydropyridin-3-carboxamide]
